According to patent US20240392055A1, “UV/HEVL-FILTERING SILICONE HYDROGEL CONTACT LENSES” (Alcon Inc., priority 2023, published 2024):
Converted amounts (≈) assume the structure as drawn.

Assays:
[1] = UV/visible absorption of dilute monomer solutions (absorption peak); format: physicochemical; conditions: HEVL absorption peak; dilute solution in PrOH
[2] = Solubility of HEVL-absorbing vinylic monomers in 1-propanol; format: physicochemical
Source text: It is also reported that there are correlations between lower melting points and compound solubility (Bathori, N. B. Acta Cryst., 2014, A70, C990). Changing the R group from —Cl to —CF3 should both shift the absorbance due to a greater electron withdrawing capability, and increase the solubility by reducing the ability of the compound to crystalize due to the bulky —CF3 group. […] UV23 would seem to be a good candidate because the —CF3 group further red shifts the absorbance and the solubility is much improved.

[3] = empirical substituent parameter of R group on benzotriazole ring; cited from earlier work
[4] = Absorption edge of visible light photoinitiators; format: physicochemical
Source text: Table 5 provides information about the photoinitiators used in this example.

[5] = Solubility of photoinitiator in lens formulation; format: physicochemical
Experimental: Four lens formulations without HEVL-absorbing benzotriazole-containing vinylic monomers are prepared to have the following compositions shown in Table 6. TTMB-Sn is not soluble in the formulation at room temperature but is soluble at 40° C. So, the photo-rheology experiment is conducted at 40° C. for this photoinitiator instead of the typical 25° C. (for other three photoinitiators).

C=C(C)C(=O)OCCCOc1cc(-n2nc3ccc(Cl)cc3n2)c(O)c(C(C)(C)C)c1 [UV28, 2-{2′-Hydroxy-3′-tert-butyl-5′-[3′-methacryloyloxypropoxy]phenyl}-5-chloro-2H-benzotriazole]
Absorption Peak (nm) [1]: 416 nm | Solubility in PrOH [2]: 1500 µg/mL (≈ 3.38 mM) | σpara [3]: 0.23

C[CH2][Ge]([CH2]C)([C](=O)c1ccccc1)[C](=O)c1ccccc1 [DBDE-Ge, dibenzoyldiethylgermanium]
Abs. edge (nm) [4]: 480 nm

CCc1ccccc1[C](=O)[Ge]([C](=O)c1ccccc1CC)([C](=O)c1ccccc1CC)[C](=O)c1ccccc1CC [TEB-Ge, tetrakis(2-ethylbenzoyl)-germanium]
Abs. edge (nm) [4]: 490 nm

Cc1cc(C)c([C](=O)[Sn]([C](=O)c2c(C)cc(C)cc2C)([C](=O)c2c(C)cc(C)cc2C)[C](=O)c2c(C)cc(C)cc2C)c(C)c1 [TTMB-Sn, tetrakis(2,4,6-trimethylbenzoyl)stannane]
solubility in the formulation ([5]; 40° C.): soluble | solubility in the formulation ([5]; room temperature): not soluble | Abs. edge (nm) [4]: 510 nm

C=CC(=O)OCCCOc1cc(-n2nc3ccc(C(F)(F)F)cc3n2)c(O)c(C(C)(C)C)c1 [UV23, 2-[2′-Hydroxy-3′-tert-butyl-5′-(3′-acryloyloxypropoxy)phenyl]-5-trifluoromethyl-2H-benzotriazole]
Absorption Peak (nm) [1]: 418 nm | Solubility in PrOH [2]: > 3300 µg/mL | σpara [3]: 0.54

C[CH2][Ge]([CH2]C)([C](=O)c1ccc(OC)cc1)[C](=O)c1ccc(OC)cc1 [BMBDE-Ge, Bis(4-methoxybenzoyl)diethylgermanium]
Abs. edge (nm) [4]: 470 nm
